In patent publication US6030823A, “D-aminoacylase” (Daicel Chemical Industries, Ltd., priority 1998, dated 2000):
“And” between values parts separate entries of the source, which are not always exact repeats. Equal entries are not always repeated. Where two headings read alike, the source gives them in different places.

Assays:
[1] = system: D-aminoacylase derived from Sebekia benihana IFO14309; type: biochemical
Method: (§1) The enzymatic reaction was performed in the same manner as in (1) except that the metal salts and enzyme inhibitors listed in Tables 10 and 11 (1 mM or 10 mM) were added to the reaction mixture.

[2] = system: D-aminoacylase derived from Sebekia benihana IFO14309; test: Substrate specificity of the aminoacylase; type: biochemical; settings: 20 mM substrate, 50 mM Tris-HCl pH 7.5, 30° C., 5 min
Method: The substrate specificity of the aminoacylase was examined using N-acetyl-D-methionine, N-acetyl-D-alanine, N-acetyl-D-aspartic acid, N-acetyl-D-leucine, N-acetyl-D-phenylalanine, N-acetyl-D-tryptophan, N-acetyl-D-valine, N-acetyl-L-leucine, N-acetyl-L-methionine, and N-acetyl-L-valine as substrates. The enzyme activity was assayed as follows. A 0.050-ml aliquot of an enzyme solution was added to 0.950 ml of 20 mM N-acetyl-D(or L)-amino acid in 50 mM Tris-HCl buffer (pH 7.5) and incubated at 30° C. for 5 min. The reaction was then stopped by adding 0.50 ml of a TCA solution to the reaction mixture. The relative activity is shown in Table 5, taking the activity for N-acetyl-L-methionine as 100%.

[3] = system: Sebekia benihana IFO14309; test: Induction of D-aminoacylase, experiment 3 (seed culture, 231 liquid medium, 0.05% inducer); type: cell-based; settings: for Activity / Specific activity: experiment 3, 20 mM N-acetyl-D-methionine, 30° C., 5 min; for Induction of the enzyme (in words): used as inducers (Table 3)
Method: Third, a seed culture was prepared by incubating the strain in test tubes, each containing 5.0 ml of PY liquid medium for 51 hours with shaking. The seed culture (0.4 ml) was then inoculated with a 2-ml Komagome pipette into test tubes, each containing 8.0 ml of 231 liquid medium (1.0% maltose; 0.2% N.Z.Amine, Type A; 0.1% yeast extract; 0.1% meat extract; pH 7.3) supplemented with 0.05% D-phenylalanine, 0.05% D-tryptophan, 0.05% D-valine, 0.05% L-phenylalanine, 0.05% L-tryptophan, or 0.05% L-valine as inducers, and cultivated for 48 hours with shaking (experiment 3).
(§2) From the culture broth obtained in experiments 1, 2, and 3, the cells were collected by centrifugation at 8000 rpm (7000×g) for 20 min with a refrigerated centrifuge (Hitachi Koki Co., Ltd.). The collected cells were washed with 50 mM Tris-HCl buffer (pH 7.5), collected again by centrifugation using the same centrifuge, then stored at -20° C.
(§3) The stored cells were suspended in 20 ml of 50 mM Tris-HCl buffer (pH 7.5) and were disrupted by sonication at 200 W for 15 min. The lysate was centrifuged at 15,000 rpm for 30 min with the above centrifuge, and the supernatant was obtained as a crude enzyme solution.
(§4) The enzymatic reaction was performed in 1.0 ml of a reaction system containing 20 mM N-acetyl-D-methionine, 50 mM Tris-HCl buffer (pH 7.5), 1 mM CoCl2, and 100 μl of the enzyme solution at 30° C. for 20 min (experiment 1), 10 min (experiment 2), and 5 min (experiment 3). The reaction was stopped by adding a TCA solution.

[4] = system: Sebekia benihana IFO14309; test: Induction of D-aminoacylase, experiment 1 (PY liquid medium, 0.10% inducer); type: cell-based; settings: 20 mM N-acetyl-D-methionine, 30° C., 20 min
Method: First, Sebekia benihana IFO14309 was cultured with shaking for 74 hours in test tubes, each containing 8.0 ml of PY liquid medium (0.2% glycerol, 2.0% yeast extract, 2.0% polypeptone, pH 7.3) supplemented with 0.10% DL-leucine, 0.10% N-acetyl-DL-leucine, 0.10% DL-methionine, 0.10% N-acetyl-DL-methionine, DL-valine, or 0.10% N-acetyl-DL-valine as inducers (experiment 1).
as §2, §3, §4

[5] = system: D-aminoacylase derived from Sebekia benihana IFO14309; test: Influences of inhibitors on the activity of the enzyme; type: biochemical
Method: as §1

[6] = system: Sebekia benihana IFO14309; test: Induction of D-aminoacylase, experiment 2 (seed culture, PY liquid medium, 0.10% inducer); type: cell-based; settings: 20 mM N-acetyl-D-methionine, 30° C., 10 min
Method: Second, a seed culture was prepared by incubating the strain in test tubes, each containing 5.0 ml of PY liquid medium for 71 hours. Then, 0.4 ml of the seed culture was inoculated with a 2-ml Komagome pipette into test tubes, each containing 8.0 ml of PY liquid medium supplemented with 0.10% DL-glutamine, 0.10% DL-histidine, 0.10% DL-isoleucine, 0.10% DL-phenylalanine, 0.10% proline, 0.10% DL-threonine, 0.10% DL-tryptophan, or 0.10% DL-valine as inducers, and cultivated for 74 hours with shaking (experiment 2).
as §2, §3, §4

[7] = column 1 mM, PCMB was used at 0.01 mM
[8] = column 10 mM, PCMB was used at 0.1 mM

[Cl][Ni][Cl] [NiCl2]
Effect of metal ions on the enzyme (in words) [1]: inhibited
D-Met ([1]; metal salt 1 mM): 0.53 mM
Residual activity ([1]; metal salt 1 mM): 44%
D-Met ([1]; metal salt 10 mM): 0.035 mM
Residual activity ([1]; metal salt 10 mM): 2.9%

CC(=O)N[C@H](CC(C)C)C(=O)O [N-Ac-D-Leu, N-acetyl-D-leucine]
Relative activity [2]: 255%

N[C@H](Cc1c[nH]c2ccccc12)C(=O)O [D-Trp, D-tryptophan]
Activity [3]: 0.913 U/ml of broth
Specific activity [3]: 0.537 U/mg
Induction of the enzyme (in words) [3]: induced well

N[C@@H](Cc1ccccc1)C(=O)O [L-Phe, L-phenylalanine]
Activity [3]: 0.00973 U/ml of broth
Specific activity [3]: 0.0064 U/mg

N[C@H](Cc1ccccc1)C(=O)O [D-Phe, D-phenylalanine]
Activity [3]: 0.479 U/ml of broth
Specific activity [3]: 0.303 U/mg
Induction of the enzyme (in words) [3]: induced well

CC(C)CC(N)C(=O)O (racemic) [DL-Leucine, DL-leucine]
Activity [4]: 0.315 U/ml of broth
Specific activity [4]: 0.0967 U/mg

CC(=O)N[C@H](Cc1ccccc1)C(=O)O [N-Ac-D-Phe, N-acetyl-D-phenylalanine]
Relative activity [2]: 100%

CCN1C(=O)C=CC1=O [N-ethyl-maleimide]
D-Met ([5]; inhibitor 1 mM): 1.7 mM
Residual activity ([5]; inhibitor 1 mM): 106%
D-Met ([5]; inhibitor 10 mM): 1.1 mM
Residual activity ([5]; inhibitor 10 mM): 69%

CC(=O)N[C@H](C)C(=O)O [N-Ac-D-Ala, N-acetyl-D-alanine]
Relative activity [2]: 1.1%

[Cl][Hg][Cl] [HgCl2]
Effect of metal ions on the enzyme (in words) [1]: inhibited
D-Met ([1]; metal salt 1 mM): 0.38 mM
Residual activity ([1]; metal salt 1 mM): 32%
D-Met ([1]; metal salt 10 mM): 0 mM
Residual activity ([1]; metal salt 10 mM): 0%

CC(=O)N[C@H](CC(N)=O)C(=O)O [N-Ac-D-Asn, N-acetyl-D-asparagine]
Relative activity [2]: 1.4%

[Ca+2].[Cl-].[Cl-] [CaCl2]
D-Met ([1]; metal salt 1 mM): 1.3 mM
Residual activity ([1]; metal salt 1 mM): 108%
D-Met ([1]; metal salt 10 mM): 1.1 mM
Residual activity ([1]; metal salt 10 mM): 92%

c1ccc(-c2ccccn2)nc1 [2,2'-Bipyridyl]
D-Met ([5]; inhibitor 1 mM): 1.6 mM
Residual activity ([5]; inhibitor 1 mM): 100%
D-Met ([5]; inhibitor 10 mM): 1.4 mM
Residual activity ([5]; inhibitor 10 mM): 88%

CSCCC(N)C(=O)O (racemic) [DL-Methionine, DL-methionine]
Activity [4]: 0.177 U/ml of broth
Specific activity [4]: 0.0475 U/mg

CC[C@H](C)[C@H](N)C(=O)O (racemic) [DL-Ile, DL-isoleucine]
Activity [6]: 0.214 U/ml of broth
Specific activity [6]: 0.0799 U/mg

O=C(O)CN(CCN(CC(=O)O)CC(=O)O)CC(=O)O [EDTA · 2Na]
D-Met [1]: 1.2 mM and 1.3 mM
Residual activity [1]: 108%

OC(CS)C(O)CS (stereo not shown) [DTT]
D-Met ([5]; inhibitor 1 mM): 0.13 mM
Residual activity ([5]; inhibitor 1 mM): 8.1%
D-Met ([5]; inhibitor 10 mM): 0.055 mM
Residual activity ([5]; inhibitor 10 mM): 3.4%

CC(C)[C@H](N)C(=O)O [L-Val, L-valine]
Activity [3]: 0.0265 U/ml of broth
Specific activity [3]: 0.0161 U/mg

O=C(O)[C@@H]1CCCN1 (racemic) [DL-Pro, proline]
Activity [6]: 0.00867 U/ml of broth
Specific activity [6]: 0.00286 U/mg

[Cl-].[Cl-].[Co+2] [CoCl2]
Effect of metal ions on the enzyme (in words) [1]: inhibited
D-Met ([1]; metal salt 1 mM): 0.65 mM
Residual activity ([1]; metal salt 1 mM): 54%
D-Met ([1]; metal salt 10 mM): 0.11 mM
Residual activity ([1]; metal salt 10 mM): 9.2%

NC(Cc1c[nH]cn1)C(=O)O (racemic) [DL-His, DL-histidine]
Activity [6]: 0.0144 U/ml of broth
Specific activity [6]: 0.0064 U/mg

CC(=O)NC(CC(C)C)C(=O)O (racemic) [N-Ac-DL-Leucine, N-acetyl-DL-leucine]
Activity [4]: 0.158 U/ml of broth
Specific activity [4]: 0.0545 U/mg

[Ba+2].[Cl-].[Cl-] [BaCl2]
D-Met ([1]; metal salt 1 mM): 1.2 mM
Residual activity ([1]; metal salt 1 mM): 100%
D-Met ([1]; metal salt 10 mM): 1.1 mM
Residual activity ([1]; metal salt 10 mM): 92%

[Cl-].[K+] [KCl]
D-Met ([1]; metal salt 1 mM): 1.2 mM
Residual activity ([1]; metal salt 1 mM): 100%
D-Met ([1]; metal salt 10 mM): 1.1 mM
Residual activity ([1]; metal salt 10 mM): 92%

[Cl][Mn][Cl] [MnCl2]
D-Met ([1]; metal salt 1 mM): 1.3 mM
Residual activity ([1]; metal salt 1 mM): 108%
D-Met ([1]; metal salt 10 mM): 0.73 mM
Residual activity ([1]; metal salt 10 mM): 61%

[Cl][Fe][Cl] [FeCl2]
Effect of metal ions on the enzyme (in words) [1]: inhibited
D-Met ([1]; metal salt 1 mM): 0.24 mM
Residual activity ([1]; metal salt 1 mM): 20%
D-Met ([1]; metal salt 10 mM): 0.035 mM
Residual activity ([1]; metal salt 10 mM): 2.9%

[Cl-].[Cl-].[Zn+2] [ZnCl2]
Effect of metal ions on the enzyme (in words) [1]: inhibited
D-Met ([1]; metal salt 1 mM): 0.50 mM
Residual activity ([1]; metal salt 1 mM): 42%
D-Met ([1]; metal salt 10 mM): 0 mM
Residual activity ([1]; metal salt 10 mM): 0%

O=C(O)CN(CCN(CC(=O)O)CC(=O)O)CC(=O)O [EDTA]
D-Met [5]: 1.6 mM
Effect of inhibitors on the enzyme (in words) [5]: inhibited
Residual activity [5]: 100%

NC(Cc1c[nH]c2ccccc12)C(=O)O (racemic) [DL-Trp, DL-tryptophan]
Activity [6]: 0.312 U/ml of broth
Specific activity [6]: 0.119 U/mg

CC(C)[C@@H](N)C(=O)O [D-Val, D-valine]
Activity [3]: 1.27 U/ml of broth
Specific activity [3]: 0.780 U/mg
Induction of the enzyme (in words) [3]: induced well

O=C(O)CI [ICH2 COOH, iodoacetic acid]
Effect of inhibitors on the enzyme (in words) [5]: inhibited

CC(=O)NC(C(=O)O)C(C)C (racemic) [N-Ac-DL-Valine, N-acetyl-DL-valine]
Activity [4]: 0.114 U/ml of broth
Specific activity [4]: 0.0341 U/mg

[Cl][Cu][Cl] [CuCl2]
Effect of metal ions on the enzyme (in words) [1]: inhibited
D-Met ([1]; metal salt 1 mM): 0.13 mM
Residual activity ([1]; metal salt 1 mM): 11%
D-Met ([1]; metal salt 10 mM): 0 mM
Residual activity ([1]; metal salt 10 mM): 0%

CC(C)C(N)C(=O)O (racemic) [DL-Valine, DL-valine]
Activity [4]: 0.429 U/ml of broth
Specific activity [4]: 0.133 U/mg
Activity [6]: 0.239 U/ml of broth
Specific activity [6]: 0.0920 U/mg

[F-].[Na+] [NaF]
D-Met ([5]; inhibitor 1 mM): 1.6 mM
Residual activity ([5]; inhibitor 1 mM): 100%
D-Met ([5]; inhibitor 10 mM): 1.4 mM
Residual activity ([5]; inhibitor 10 mM): 88%

CSCCC(NC(C)=O)C(=O)O (racemic) [N-Ac-DL-Methionine, N-acetyl-DL-methionine]
Activity [4]: 0.0713 U/ml of broth
Specific activity [4]: 0.0186 U/mg

C[C@@H](O)[C@H](N)C(=O)O (racemic) [DL-Thr, DL-threonine]
Activity [6]: 0.0163 U/ml of broth
Specific activity [6]: 0.00587 U/mg

[Cl-].[Cl-].[Mg+2] [MgCl2]
D-Met ([1]; metal salt 1 mM): 1.3 mM
Residual activity ([1]; metal salt 1 mM): 108%
D-Met ([1]; metal salt 10 mM): 1.2 mM
Residual activity ([1]; metal salt 10 mM): 100%

[Cl-].[Na+] [NaCl]
D-Met [1]: 1.3 mM and 1.1 mM
Residual activity [1]: 108% and 92%

O=C(O)c1cc[c]([Hg][Cl])cc1 [PCMB, p-chloromercuribenzoic acid]
Effect of inhibitors on the enzyme (in words) [5]: inhibited
D-Met [5, 7]: 1.8 mM
Residual activity [5, 7]: 112%
D-Met [5, 8]: 1.6 mM
Residual activity [5, 8]: 100%

N[C@@H](Cc1c[nH]c2ccccc12)C(=O)O [L-Trp, L-tryptophan]
Activity [3]: 0.0243 U/ml of broth
Specific activity [3]: 0.0134 U/mg

NC(Cc1ccccc1)C(=O)O (racemic) [DL-Phe, DL-phenylalanine]
Activity [6]: 0.190 U/ml of broth
Specific activity [6]: 0.0701 U/mg
